Data published in patent US10160748B2 (AbbVie Inc., priority 2015, dated 2018).

molecular target: TNFα trimer (Homo sapiens, UniProt P01375); assay: TNFα FP Competitive Binding Assay; conditions: FP binding assay; 20 nM TNFα trimer, 1 nM OregonGreen488 probe; read-out: TNF IC50
Outline: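 Compounds in 12-point 1:3 series, final top 100 μM (2.0% DMSO) or 338 μM (3.4% DMSO), displace 1 nM fluorescent probe from 20 nM TNFα trimer. After 18-24 h incubation plus 1 h rt equilibration, background-subtracted polarization measured and curves fitted with variable slope.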

Sequence of TNFα trimer (P01375 77-233 limits assumed): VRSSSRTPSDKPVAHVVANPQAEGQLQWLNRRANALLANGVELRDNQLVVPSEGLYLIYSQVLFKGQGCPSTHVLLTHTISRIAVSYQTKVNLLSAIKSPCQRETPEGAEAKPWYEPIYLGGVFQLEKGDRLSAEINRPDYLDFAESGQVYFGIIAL

| IC50 [nM] | SMILES |
| --- | --- |
| < 1000 | C[C@@H]1CN(c2ncc(-c3ccc4c(=O)n(C)n(Cc5ccccc5OC(F)F)c4c3)cn2)CCN1C(=O)[C@@H]1COC(C)(C)O1 [Example 38* Step 1, 1-(2-(Difluoromethoxy)benzyl)-6-(2-((R)-4-((S)-2,2-dimethyl-1,3-dioxolane-4-carbonyl)-3-methylpiperazin-1-yl)pyrimidin-5-yl)-2-methyl-1H-indazol-3(2H)-one] |
| < 1000 | C[C@@H]1CN(c2ncc(-c3ccc4c(=O)n(C)n(Cc5ccccc5OC(F)F)c4c3)cn2)CCN1C(=O)[C@@H](O)CO [Example 38, 1-(2-(Difluoromethoxy)benzyl)-6-(2-((R)-4-((S)-2,3-dihydroxypropanoyl)-3-methylpiperazin-1-yl)pyrimidin-5-yl)-2-methyl-1H-indazol-3(2H)-one] |
| < 1000 | C[C@@H]1CN(c2ncc(-c3ccc4c(=O)n(C)n(Cc5ccccc5OC(F)F)c4c3)cn2)CCN1C(=O)[C@H](O)CO [Example 39, 1-(2-(Difluoromethoxy)benzyl)-6-(2-((R)-4-((R)-2,3-dihydroxypropanoyl)-3-methylpiperazin-1-yl)pyrimidin-5-yl)-2-methyl-1H-indazol-3(2H)-one] |
| 1000 to 10000 | Cn1c(=O)c2cc(F)c(-c3cnc(C(C)(C)O)nc3)cc2n1Cc1ccccc1OC(F)F [Example 40, 1-(2-(Difluoromethoxy)benzyl)-5-fluoro-6-(2-(2-hydroxypropan-2-yl)pyrimidin-5-yl)-2-methyl-1H-indazol-3(2H)-one] |
| < 1000 | Cc1ccc(OC(F)F)c(Cn2c3cc(-c4cnc(N5CCN(S(C)(=O)=O)[C@@H](C)C5)nc4)ccc3c(=O)n2C)c1 [Example 41, (S)-1-(2-(Difluoromethoxy)-5-methylbenzyl)-2-methyl-6-(2-(3-methyl-4-(methylsulfonyl)piperazin-1-yl)pyrimidin-5-yl)-1H-indazol-3(2H)-one] |
| 1000 to 10000 | Cn1c(=O)c2ccc(-c3cnc(C(C)(C)O)nc3)cc2n1Cc1cc(NCc2ccccn2)ccc1Cl [Example 42, 1-(2-Chloro-5-((pyridin-2-ylmethyl)amino)benzyl)-6-(2-(2-hydroxypropan-2-yl)pyrimidin-5-yl)-2-methyl-1H-indazol-3(2H)-one] |
| 1000 to 10000 | Cn1c(=O)c2ccc(-c3cnc(C(C)(C)O)nc3)cc2n1Cc1cc(NCc2cc[nH]n2)ccc1Cl [Example 43] |
| < 1000 | Cn1c(=O)c2ccc(-c3cnc(C(C)(C)O)nc3)cc2n1Cc1cc(NC2CCCc3c[nH]nc32)ccc1Cl (stereo not shown) [Example 44, 1-(2-Chloro-5-((4,5,6,7-tetrahydro-1H-indazol-7-yl)amino)benzyl)-6-(2-(2-hydroxypropan-2-yl)pyrimidin-5-yl)-2-methyl-1H-indazol-3(2H)-one] |
| < 1000 | Cc1ccc(OC(F)F)c(Cn2c3c(F)c(-c4cnc(C(C)(C)O)nc4C)ccc3c(=O)n2C)c1 [Example 45, 1-(2-(Difluoromethoxy)-5-methylbenzyl)-7-fluoro-6-(2-(2-hydroxypropan-2-yl)-4-methylpyrimidin-5-yl)-2-methyl-1H-indazol-3(2H)-one] |
| < 1000 | C[C@@H]1CN(c2ncc(-c3c(F)cc4c(=O)n(C)n(Cc5ccccc5OC(F)F)c4c3F)cn2)CCN1C(=O)CO [Example 46] |
| 1000 to 10000 | COc1cc2c(=O)n(C)n(Cc3ccccc3OC(F)F)c2cc1-c1cnc(N2CCN(C(=O)CO)[C@H](C)C2)nc1 [Example 47, (R)-1-(2-(Difluoromethoxy)benzyl)-6-(2-(4-(2-hydroxyacetyl)-3-methylpiperazin-1-yl)pyrimidin-5-yl)-5-methoxy-2-methyl-1H-indazol-3(2H)-one] |
| < 1000 | CC(=O)N1CCN(c2ncc(-c3ccc4c(=O)n(C)n(Cc5c(CO)cccc5OC(F)F)c4c3)cn2)C[C@H]1C [Example 48, (R)-6-(2-(4-Acetyl-3-methylpiperazin-1-yl)pyrimidin-5-yl)-1-(2-(difluoromethoxy)-6-(hydroxymethyl)benzyl)-2-methyl-1H-indazol-3(2H)-one] |
| < 1000 | CC(=O)N1CCN(c2ncc(-c3ccc4c(=O)n(C)n(Cc5c(CC#N)cccc5OC(F)F)c4c3)cn2)C[C@H]1C [Example 49, (R)-2-(2-((6-(2-(4-Acetyl-3-methylpiperazin-1-yl)pyrimidin-5-yl)-2-methyl-3-oxo-2,3-dihydro-1H-indazol-1-yl)methyl)-3-(difluoromethoxy)phenyl)acetonitrile] |
| < 1000 | C[C@@H]1CN(c2ncc(-c3ccc4c(=O)n(C)n(Cc5ccccc5OC(F)F)c4c3)cn2)CCN1C(=O)[C@H](O)CC(=O)O [Example 50, (R)-4-((R)-4-(5-(1-(2-(Difluoromethoxy)benzyl)-2-methyl-3-oxo-2,3-dihydro-1H-indazol-6-yl)pyrimidin-2-yl)-2-methylpiperazin-1-yl)-3-hydroxy-4-oxobutanoic acid] |
| < 1000 | C[C@@H]1CN(c2ncc(-c3ccc4c(=O)n(C)n(Cc5ccccc5OC(F)F)c4c3)cn2)CCN1C(=O)[C@@H](O)CC(=O)O [Example 51, (S)-4-((R)-4-(5-(1-(2-(Difluoromethoxy)benzyl)-2-methyl-3-oxo-2,3-dihydro-1H-indazol-6-yl)pyrimidin-2-yl)-2-methylpiperazin-1-yl)-3-hydroxy-4-oxobutanoic acid] |
| 1000 to 10000 | CC(=O)N1CCN(c2ncc(-c3ccc4c(=O)n(C)n(Cc5cccc6c5SCC(=O)NC6)c4c3)cn2)C[C@H]1C [Example 52, (R)-9-((6-(2-(4-Acetyl-3-methylpiperazin-1-yl)pyrimidin-5-yl)-2-methyl-3-oxo-2,3-dihydro-1H-indazol-1-yl)methyl)-4,5-dihydrobenzo[f][1,4]thiazepin-3(2H)-one] |
| 1000 to 10000 | Cn1c(=O)c2ccc(-c3cnc(C(C)(C)O)nc3)cc2n1Cc1cc(NCc2cccnc2)ccc1Cl [Example 53, 1-(2-Chloro-5-((pyridin-3-ylmethyl)amino)benzyl)-6-(2-(2-hydroxypropan-2-yl)pyrimidin-5-yl)-2-methyl-1H-indazol-3(2H)-one] |
| 1000 to 10000 | Cc1ccc(CO)cc1Cn1c2cc(-c3cnc(N4CCOCC4)nc3)ccc2c(=O)n1C [Example 56, 1-(5-(Hydroxymethyl)-2-methylbenzyl)-2-methyl-6-(2-morpholinopyrimidin-5-yl)-1H-indazol-3(2H)-one] |
| < 1000 | [2H]C([2H])([2H])n1c(=O)c2ccc(-c3cnc(N4CCN5C(=O)OC[C@H]5C4)nc3)cc2n1Cc1cc(C)ccc1OC(F)F [Example 57, (R)-7-(5-(1-(2-(Difluoromethoxy)-5-methylbenzyl)-2-(methyl-d3)-3-oxo-2,3-dihydro-1H-indazol-6-yl)pyrimidin-2-yl)hexahydro-3H-oxazolo[3,4-a]pyrazin-3-one] |
| < 1000 | C[C@@H]1CN(c2ncc(-c3cc4c(cc3F)c(=O)n(C)n4Cc3ccccc3OC(F)F)cn2)CCN1C(=O)CO [Example 59, (R)-1-(2-(Difluoromethoxy)benzyl)-5-fluoro-6-(2-(4-(2-hydroxyacetyl)-3-methylpiperazin-1-yl)pyrimidin-5-yl)-2-methyl-1H-indazol-3(2H)-one] |
| < 1000 | C[C@@H]1CN(c2ccc(-c3cc4c(cc3F)c(=O)n(C)n4Cc3ccccc3OC(F)F)cn2)CCN1C(=O)CO [Example 60, (R)-1-(2-(Difluoromethoxy)benzyl)-5-fluoro-6-(6-(4-(2-hydroxyacetyl)-3-methylpiperazin-1-yl)pyridin-3-yl)-2-methyl-1H-indazol-3(2H)-one] |
| < 1000 | CC(=O)N1CCN(c2ncc(-c3ccc4c(=O)n(C)n(Cc5nc(CC#N)ccc5C(F)(F)F)c4c3)cn2)C[C@H]1C [Example 61, (R)-2-(6-((6-(2-(4-Acetyl-3-methylpiperazin-1-yl)pyrimidin-5-yl)-2-methyl-3-oxo-2,3-dihydro-1H-indazol-1-yl)methyl)-5-(trifluoromethyl)pyridin-2-yl)acetonitrile] |
| < 1000 | [2H]C([2H])([2H])n1c(=O)c2ccc(-c3cnc(N4CCN(C(=O)CO)[C@H](C)C4)nc3)cc2n1Cc1cc(C)ccc1OC(F)F [Example 62, (R)-1-(2-(Difluoromethoxy)-5-methylbenzyl)-6-(2-(4-(2-hydroxyacetyl)-3-methylpiperazin-1-yl)pyrimidin-5-yl)-2-(methyl-d3)-1H-indazol-3(2H)-one] |
| < 1000 | [2H]C([2H])([2H])n1c(=O)c2ccc(-c3cnc(N4CCN(C(C)=O)[C@H](C)C4)nc3)cc2n1Cc1cc(C)ccc1OC(F)F [Example 63, (R)-6-(2-(4-Acetyl-3-methylpiperazin-1-yl)pyrimidin-5-yl)-1-(2-(difluoromethoxy)-5-methylbenzyl)-2-methyl-d3-1H-indazol-3(2H)-one] |
| < 1000 | CC(=O)N1CCN(c2ncc(-c3ccc4c(=O)n(C)n(Cc5cn(CCO)cc5C(F)(F)F)c4c3)cn2)C[C@H]1C [Example 64, (R)-6-(2-(4-Acetyl-3-methylpiperazin-1-yl)pyrimidin-5-yl)-1-((1-(2-hydroxyethyl)-4-(trifluoromethyl)-1H-pyrrol-3-yl)methyl)-2-methyl-1H-indazol-3(2H)-one] |
| < 1000 | CC(=O)N1CCN(c2ncc(-c3ccc4c(=O)n(C)n(Cc5c(CO)cccc5OC(F)F)c4c3)cn2)[C@H](C)C1 [Example 65, (R)-6-(2-(4-acetyl-2-methylpiperazin-1-yl)pyrimidin-5-yl)-1-(2-(difluoromethoxy)-6-(hydroxymethyl)benzyl)-2-methyl-1H-indazol-3(2H)-one] |
| < 1000 | Cn1c(=O)c2ccc(-c3cnc(N4CCN5C(=O)NC[C@@H]5C4)nc3)cc2n1Cc1c(CO)cccc1OC(F)F [Example 66, (R)-7-(5-(1-(2-(difluoromethoxy)-6-(hydroxymethyl)benzyl)-2-methyl-3-oxo-2,3-dihydro-1H-indazol-6-yl)pyrimidin-2-yl)hexahydroimidazo[1,5-a]pyrazin-3(2H)-one] |
| < 1000 | CN(C)C(=O)OCc1ccc(OC(F)F)c(Cn2c3cc(-c4cnc(N5CCN6C(=O)NC[C@@H]6C5)nc4)ccc3c(=O)n2C)c1 [Example 67, (R)-4-(Difluoromethoxy)-3-((2-methyl-3-oxo-6-(2-(3-oxohexahydroimidazo[1,5-a]pyrazin-7(1H)-yl)pyrimidin-5-yl)-2,3-dihydro-1H-indazol-1-yl)methyl)benzyldimethylcarbamate] |
